Source: ChEMBL document CHEMBL4627285, “Multi-step parallel synthesis enabled optimization of benzofuran derivatives as pan-genotypic non-nucleoside inhibitors of HCV NS5B” (Bioorg Med Chem Lett, 2020)
In brackets after ≈: the same amount, converted by molar mass.

Key:
[1] = Clearance in Wistar rat; assay type: ADME; conditions: in vivo
[2] = AUC in Wistar rat; assay type: ADME; conditions: in vivo
[3] = MRT in Wistar rat; assay type: ADME; conditions: in vivo
[4] = Solubility of compound in FASSIF at pH 6.5; assay type: physicochemical
[5] = Volume of distribution in Wistar rat; assay type: ADME; conditions: in vivo

Row | SMILES | clearance [1] [mL/min/kg] | AUC [2] [µM·h] | MRT [3] [h] | solubility ([4]; FaSSIF, read-out: solubility) [µM] | Vd [5] [L/kg] | solubility ([4]; simulated gi fluid) [µM]
1 | CNC(=O)c1c(-c2ccc(F)cc2)oc2cc(N(C)S(C)(=O)=O)c(-c3ccc4nc(C)n(Cc5ccc(F)cc5)c(=O)c4c3)cc12 | 27.4 | 1.06 | 2.84 | 70 (≈ 45 µg/mL) | 4.28 | 
2 | CNC(=O)c1c(-c2ccc(F)cc2)oc2cc(N(C)S(C)(=O)=O)c(-c3ccc4c(n3)-c3cc5c(F)cccc5n3CO4)cc12 [MK-8876] | 7.03 | 3.92 | 18.1 |  | 5.79 | 42 (≈ 25.8 µg/mL)
